Assay [1] has as its system human gastric cancer strain GSU. It counts as cell-based. Summed up:
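Cells seeded at 200 per well in RPMI-1640 with 10% FBS onto serially diluted compound (DMSO) in U-bottom plates. Viability read by CellTiter-Glo luminescence.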

Assay [2] addresses GDP-bound NRAS wild-type protein (Homo sapiens, UniProt P01111). The experiment in a line: Binding to NRAS by surface plasmon resonance (SPR), KD and KD ratio to KRAS. The note with it: ratio of KD for GDP-bound NRAS wild-type protein to KD for KRAS. The method in brief:
(§1)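 Compound binding is evaluated by SPR single-cycle kinetics, with concentrations added intermittently from low to high for 75 s each. Target surfaces carry GDP-loaded biotinylated Avi-RAS at about 100–300 RU, regenerated after each cycle; temperature 30°C. A 1:1 binding model gives KD.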
On the technique in general: In SPR one partner is held on a chip, and binding of the other changes the refractive index at the surface.

Assay [3] has as its target GDP-bound KRAS wild-type protein (Homo sapiens, UniProt P01116). Description: Binding to KRAS by surface plasmon resonance (SPR), dissociation constant KD. The method in brief:
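Running buffer contained 10 µM GDP and 10 mM MgCl2 to keep RAS in the GDP state, with 4% DMSO at pH 7.4. Compounds were flowed at 100 µL/min in 75 s steps of rising concentration over captured biotin-Avi RAS at 30°C. Sensorgrams were fitted 1:1 for KD.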

Assay [4] has as its target HRAS wild-type protein (Homo sapiens, UniProt P01112). The experiment in a line: Binding to HRAS by surface plasmon resonance (SPR), KD and KD ratio to KRAS. As to conditions: ratio of KD for HRAS wild-type protein to KD for KRAS. Summed up:
as §1

Assay [5] has as its system human gastric cancer strain SNU-1. It is filed as cell-based. Summed up: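 SNU-1 gastric cancer cells, 250 cells/well in RPMI-1640 with 10% FBS, glucose, HEPES and sodium pyruvate, plated onto serially diluted compound in DMSO.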
The test system of assay [6] is human bladder cancer strain UM-UC-3. It is filed as cell-based. The method in brief: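 UM-UC-3 human bladder cancer cells were seeded at 250 cells/well onto serially diluted compound in MEM with 10% FBS. Viability was read as CellTiter-Glo luminescence.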
The test system of assay [7] is human pancreatic cancer strain KP4. It is filed as cell-based. Summed up:
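KP4 pancreatic cancer cells seeded at 500 cells/well in DMEM/Ham's F-12 with 10% FBS onto serially diluted compound. Viability read by CellTiter-Glo luminescence.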

Assay [8] has as its system human lung cancer strain NCI-H441. It counts as cell-based. Summed up:
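Proliferation was scored by […] measured after the reagent was added to cultures kept at 37°C in 5% carbon dioxide.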

Assay [9] has as its system human colorectal cancer strain GP2d. It counts as cell-based. The method in brief: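 Cells seeded at 500 cells/well in DMEM with 10% FBS onto serially diluted compound in DMSO, then cultured 7 days at 37°C, 5% CO2. Viability read by CellTiter-Glo luminescence.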
Assay [10] relates to human ovarian cancer strain OV7. It is filed as cell-based. Summed up: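 OV7 cells, 250 per well, in DMEM/Ham's F-12 with 5% FBS, 0.5 µg/mL hydrocortisone and 10 µg/mL insulin, grown 7 days at 37°C with serially diluted compound. Viability by CellTiter-Glo luminescence.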

Structures are written as SMILES.

Sequence of GDP-bound KRAS wild-type protein (P01116 1-188 isoform P01116-2): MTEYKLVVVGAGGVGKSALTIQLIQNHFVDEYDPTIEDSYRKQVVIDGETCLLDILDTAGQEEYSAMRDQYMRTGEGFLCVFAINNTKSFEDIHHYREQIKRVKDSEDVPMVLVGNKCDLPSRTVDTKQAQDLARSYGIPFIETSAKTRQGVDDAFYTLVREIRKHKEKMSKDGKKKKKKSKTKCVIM
Sequence of GDP-bound NRAS wild-type protein (P01111 whole entry): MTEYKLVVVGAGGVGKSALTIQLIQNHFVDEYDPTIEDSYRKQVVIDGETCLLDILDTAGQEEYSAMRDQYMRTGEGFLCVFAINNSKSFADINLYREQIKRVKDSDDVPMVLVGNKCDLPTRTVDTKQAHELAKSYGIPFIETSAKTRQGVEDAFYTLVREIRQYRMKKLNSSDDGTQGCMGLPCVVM
Sequence of HRAS wild-type protein (P01112 whole entry): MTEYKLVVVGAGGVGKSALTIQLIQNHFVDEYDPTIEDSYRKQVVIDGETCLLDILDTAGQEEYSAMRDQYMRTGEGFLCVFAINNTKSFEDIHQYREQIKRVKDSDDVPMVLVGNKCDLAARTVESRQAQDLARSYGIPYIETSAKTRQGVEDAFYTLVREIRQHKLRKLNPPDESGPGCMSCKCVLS

One may read the IC50 as the concentration at which inhibition is half-maximal. As usually defined, the Kd is the equilibrium constant for the complex coming apart. Low values mean higher affinity, high ones lower affinity. In the case of `CCO[C@@H]1C[C@H]2C(=O)NC3(CC(C)(C)C3)C(=O)N(C)[C@@H](C3CCCC3)C(=O)N(C)[C@H](C(=O)N(C)C)CC(=O)N(C)[C@@H]([C@@H](C)OC)C(=O)N[C@@H]([C@@H](C)CC)C(=O)N(C)CC(=O)N(C)[C@H]3C/C=C\CCN(C3=O)[C@@H](Cc3ccc(C(F)(F)F)cc3)C(=O)N(C)CC(=O)N[C@@H](CCc3ccc(C(F)(F)F)c(Cl)c3)C(=O)N2C1` [PP3198, (2S,8S,12R,14S,20S,23S,27S,30S,36S,38Z)-8-[2-[3-chloro-4-(trifluoromethyl)phenyl]ethyl]-20-cyclopentyl-12-ethoxy-27-[(1R)-1-methoxyethyl]-N,N,3',3',4,19,22,26,32,35-decamethyl-30-[(1S)-1-methylpropyl]-3,6,9,15,18,21,25,28,31,34,42-undecaoxo-2-[[4-(trifluoromethyl)phenyl]methyl]spiro[1,4,7,10,16,19,22,26,29,32,35-undecazatricyclo[34.5.1.0^10,14]dotetracont-38-ene-17,1'-cyclobutane]-23-carboxamide], the IC50 in assay [1] worked out at 0.4 nM; in assay [5] it was 3.2 nM; in [6], 2.5 nM; in assay [7], 4.7 nM; in [8], 4.4 nM; in assay [9], 2.4 nM. In assay [10], this compound had an IC50 of 7.2 nM. Further, the “NRAS /KRAS” value in assay [2] is “A (a compound having 10 or more and less than 20 is denoted as A)”. In assay [3] (1:1 binding model), this compound showed a Kd of 0.04 nM. In assay [4], the “HRAS /KRAS” value was “A (a compound having 10 or more and less than 20 is denoted as A)”.

Take `C#CC[C@H]1C(=O)N[C@@H]([C@@H](C)CC)C(=O)N(C)CC(=O)N(C)[C@H]2C/C=C\CCN(C2=O)[C@@H](Cc2ccc(C(F)(F)F)cc2)C(=O)N(C)CC(=O)N[C@@H](CCc2ccc(C(F)(F)F)c(Cl)c2)C(=O)N2C[C@H](OCC)C[C@H]2C(=O)N(C)C2(CCC2)C(=O)N(C)[C@@H](C2CCCC2)C(=O)N(C)[C@H](C(=O)N(C)C)CC(=O)N1C` [PP3234, (2S,8S,12R,14S,20S,23S,27S,30S,36S,38Z)-8-[2-[3-chloro-4-(trifluoromethyl)phenyl]ethyl]-20-cyclopentyl-12-ethoxy-N,N,4,16,19,22,26,32,35-nonamethyl-30-[(1S)-1-methylpropyl]-3,6,9,15,18,21,25,28,31,34,42-undecaoxo-27-prop-2-ynyl-2-[[4-(trifluoromethyl)phenyl]methyl]spiro[1,4,7,10,16,19,22,26,29,32,35-undecazatricyclo[34.5.1.0^10,14]dotetracont-38-ene-17,1'-cyclobutane]-23-carboxamide]: the IC50 was 0.4 nM in [1]; 2 nM in assay [5]; 0.7 nM in [6]; 3.2 nM in [7]; 1.6 nM in assay [8]; 1.1 nM in assay [9]. For the same compound, the midpoint of inhibition in [10], the IC50, lay at 2.2 nM. For the same compound, the “NRAS /KRAS” value in [2] is “A (a compound having 10 or more and less than 20 is denoted as A)”. In addition, the dissociation constant Kd in [3] (Single Cycle Kinetics) came out at 0.026 nM. Moreover, the “HRAS /KRAS” value in [4] was “B (a compound having 3 or more and less than 10 is denoted as B)”.

On to `C#CC[C@H]1C(=O)N[C@@H]([C@@H](C)CC)C(=O)N(C)CC(=O)N(C)[C@H]2C/C=C\CCN(C2=O)[C@@H](Cc2ccc(C)cc2)C(=O)N(C)CC(=O)N[C@@H](CCc2cc(F)c(C(F)(F)F)c(F)c2)C(=O)N2C[C@H](OCC)C[C@H]2C(=O)N(C)C2(CCC2)C(=O)N(C)[C@@H](C2CCCC2)C(=O)N(C)[C@H](C(=O)N(C)C)CC(=O)N1C` [PP3238, (2S,8S,12R,14S,20S,23S,27S,30S,36S,38Z)-20-cyclopentyl-8-[2-[3,5-difluoro-4-(trifluoromethyl)phenyl]ethyl]-12-ethoxy-N,N,4,16,19,22,26,32,35-nonamethyl-30-[(1S)-1-methylpropyl]-3,6,9,15,18,21,25,28,31,34,42-undecaoxo-27-prop-2-ynyl-2-(p-tolylmethyl)spiro[1,4,7,10,16,19,22,26,29,32,35-undecazatricyclo[34.5.1.0^10,14]dotetracont-38-ene-17,1'-cyclobutane]-23-carboxamide], for which the IC50 in assay [1] was found to be 0.6 nM; in assay [5] it was 2.1 nM; in [6], 1.5 nM; in assay [7], 4.2 nM; in assay [8], 1.9 nM; in assay [9], 1.5 nM. Further, half-maximal inhibition in assay [10] (IC50) was put at 2.1 nM. Further, in assay [2], the “NRAS /KRAS” value is “A (a compound having 10 or more and less than 20 is denoted as A)”. Besides, the affinity in [3] (Single Cycle Kinetics), expressed as Kd, was 0.022 nM. For the same compound, in assay [4], the “HRAS /KRAS” value was “A (a compound having 10 or more and less than 20 is denoted as A)”.

For the compound `C#CC[C@H]1C(=O)N[C@@H]([C@@H](C)CC)C(=O)N2CCC[C@H]2C(=O)N(C)[C@H]2C/C=C\CCN(C2=O)[C@@H](Cc2ccc(C)cc2)C(=O)N(C)CC(=O)N[C@@H](CCc2ccc(C(F)(F)F)c(OC)c2)C(=O)N2C[C@H](OCC)C[C@H]2C(=O)N(C)C2(CCC2)C(=O)N(C)[C@@H](C2CCCC2)C(=O)N(C)[C@H](C(=O)N(C)C)CC(=O)N1C` [PP3255, (1S,4S,10S,13S,17S,20S,26S,28R,32S,38S,42Z)-20-cyclopentyl-28-ethoxy-32-[2-[3-methoxy-4-(trifluoromethyl)phenyl]ethyl]-N,N,2,14,18,21,24,36-octamethyl-10-[(1S)-1-methylpropyl]-3,9,12,15,19,22,25,31,34,37,45-undecaoxo-13-prop-2-ynyl-38-(p-tolylmethyl)spiro[2,8,11,14,18,21,24,30,33,36,39-undecazatetracyclo[37.5.1.0^4,8.0^26,30]pentatetracont-42-ene-23,1'-cyclobutane]-17-carboxamide], the concentration for half-maximal inhibition (IC50) was found to be 1.9 nM in [1]; 6.6 nM in assay [5]; 3.7 nM in [6]; 9.3 nM in assay [7]; 5.7 nM in assay [8]; 3.8 nM in [9]. Further, half-maximal inhibition in assay [10] (IC50) was put at 7.1 nM. Also, in [2], the “NRAS /KRAS” value was “A (a compound having 10 or more and less than 20 is denoted as A)”. This compound came in with a Kd in assay [3] (Single Cycle Kinetics) of 0.1 nM. In addition, in assay [4], the “HRAS /KRAS” value was “A (a compound having 10 or more and less than 20 is denoted as A)”.

With `CCC[C@H]1C(=O)N[C@@H]([C@@H](C)CC)C(=O)N(C)CC(=O)N(C)[C@H]2C/C=C\CCN(C2=O)[C@@H](Cc2ccc(C)cc2)C(=O)N(C)CC(=O)N[C@@H](CCc2cc(F)c(C(F)(F)F)c(F)c2)C(=O)N2CC3(CC3)C[C@H]2C(=O)N(C)C2(CCC2)C(=O)N(C)[C@@H](C2CCCC2)C(=O)N(C)[C@H](C(=O)N(C)C)CC(=O)N1C` [PP3327], the IC50 in assay [1] is 0.5 nM; in assay [5], 2.4 nM; in assay [6], 0.6 nM; in assay [7], 4 nM; in assay [8], 4.4 nM; in [9] it was 0.7 nM. 1.6 nM corresponded to half-maximal inhibition in assay [10] (IC50). In addition, in assay [2], the “NRAS /KRAS” value was “A (a compound having 10 or more and less than 20 is denoted as A)”. This compound also displayed a Kd in assay [3] (Single Cycle Kinetics) of 0.019 nM. In addition, the “HRAS /KRAS” value in [4] is “A (a compound having 10 or more and less than 20 is denoted as A)”.

In the case of `CCC[C@H]1C(=O)N[C@@H]([C@@H](C)CC)C(=O)N(C)CC(=O)N(C)[C@H]2C/C=C\CCN(C2=O)[C@@H](Cc2ccc(C(F)(F)F)cc2)C(=O)N(C)CC(=O)N[C@@H](CCc2cc(F)c(C(F)(F)F)c(F)c2)C(=O)N2CC3(CC3)C[C@H]2C(=O)N(C)C2(CCC2)C(=O)N(C)[C@@H](C2CCCC2)C(=O)N(C)[C@H](C(=O)N(C)C)CC(=O)N1C` [PP3356], the IC50 came out at 1 nM in assay [1]; 4 nM in [5]; 1.3 nM in assay [6]; 4.9 nM in [7]; 2.3 nM in [8]; 1.5 nM in [9]. Also, inhibition in assay [10] was half-maximal at 2.5 nM (IC50). Besides, the “NRAS /KRAS” value in assay [2] was “A (a compound having 10 or more and less than 20 is denoted as A)”. Moreover, the Kd in assay [3] (Single Cycle Kinetics) was 0.044 nM. The “HRAS /KRAS” value in [4] is “A (a compound having 10 or more and less than 20 is denoted as A)”.

The values are drawn from patent publication EP4603105A1, “PHARMACEUTICAL COMPOSITION CONTAINING CYCLIC COMPOUND HAVING SELECTIVE KRAS INHIBITORY EFFECT AGAINST HRAS AND NRAS” (CHUGAI SEIYAKU KABUSHIKI KAISHA, priority 2022, dated 2024).
